Where two headings read alike, the source gives them in different places. Residues, ends and D or L forms follow the SMILES beside them. No end group written: not given here.
B1: C5a: complement activation product C5a, anaphylatoxin (protein, UniProt P01031 678-751, looked up)
C5a anaphylatoxin: TLQKKIEEIAAKYKHSVVKKCCYDGACVNNDETCEQRAARISLGPRCIKAFTECCVVASQLRANISHKDMQLGR
modifications: C5a anaphylatoxin

Key:
[1] = system: RBL-2H3 cells; format: cell-based, rat
Protocol: Mediator secretion by the rat mucosal mast cells, RBL-2H3-line, in response to stimulation by FcεRI clustering was monitored by measuring the activity of the secreted granular enzyme β-hexosaminidase. To this end, a monoclonal DNP-specific murine IgE-class antibody (rat clone 95.3, 1:10^3 dilution) was added to 15×10^6 cells in 10 ml DMEM and incubated in 96 well plates (100 μl suspension/well) for 2 hours. The cell monolayers were then washed three times with Tyrode's buffer (137 mM NaCl, 2.7 mM KCl, 1.8 mM CaCl2, 0.5 mM MgCl2, 0.4 mM NaH2PO4, 5.6 mM glucose, 10 mM Hepes, 0.1% BSA, pH 7.4.) and stimulated with BSA derivatized by an average of 11 DNP groups per molecule (DNP11-BSA) serving as an antigen. To study the effect of the peptides on antigen-induced response, RBL-2H3 cells were pre-incubated with various concentrations of the peptides for 5 minutes at room temperature before the antigen was added at the pre-determined suboptimal dose. The peptides were present throughout the assay. After 1 hour incubation at 37 ° C., 25 μl of the cell supernatants were removed and incubated with 50 μl of β-hexosaminidase substrate solution (1.3 mg/ml p-nitrophenyl-N-acetyl-β-D-glucosamine in 0.1 M sodium citrate, pH 4.5) at 37° C. for 45 minutes. The reaction was terminated by the addition of 150 μl of 0.2 M glycine, pH 10.7, and the optical density of the samples was measured at 405 nm. […] The total enzyme content of the cells/well (following lysis by triton-x-100) and the spontaneous enzyme release of the cells/well was measured in each experiment. All experiments were performed in triplicate and the results were calculated as net secreted enzyme activity (as fraction or percentage of total cell-content) in response to the stimulus.

[2] = system: RBL-2H3 cells; settings: Erdei et al. 1995, 1999; cited from earlier work
[3] = Circular dichroism (CD) measurement of ordered structure; format: physicochemical; settings: 100 μg/ml in PBS, room temperature; CD+/CD− not defined
Protocol: In order to assess possible structural features that characterize the active peptides, CD measurement were carried out. The CD measurements were performed on an Applied Photophysics spetrometer in 1 mm light path cell, at room temperature (about 25° C.). The peptides stock solutions were usually of 5 mg/ml in water and the measurements were done at a 100 μg/ml dilution in PBS.

Molecule	Inhibition of secretion of 3H2 of RBL cells (IC50) [1]	Effect on IgE-mediated degranulation of RBL-2H3 cells (literature) [2]	further results
DCSNYITR [Monomer A (5508)]	75 µg/mL		
CC[C@H](C)[C@H](NC(=O)[C@H](Cc1ccc(O)cc1)NC(=O)[C@H](CC(N)=O)NC(=O)[C@H](CO)NC(=O)[C@H](CSSC[C@H](NC(=O)[C@@H](N)CC(=O)O)C(=O)N[C@@H](CO)C(=O)N[C@@H](CC(N)=O)C(=O)N[C@@H](Cc1ccc(O)cc1)C(=O)N[C@H](C(=O)N[C@H](C(=O)N[C@@H](CCCNC(=N)N)C(=O)O)[C@@H](C)O)[C@@H](C)CC)NC(=O)[C@@H](N)CC(=O)O)C(=O)N[C@H](C(=O)N[C@@H](CCCNC(=N)N)C(=O)O)[C@@H](C)O [Dimer A (5508)2] (HELM PEPTIDE1{D.C.S.N.Y.I.T.R}|PEPTIDE2{D.C.S.N.Y.I.T.R}$PEPTIDE1,PEPTIDE2,2:R3-2:R3$$$V2.0; N-terminus and C-terminus assumed)	15 µg/mL		
CC[C@H](C)[C@H](NC(=O)[C@H](Cc1ccc(O)cc1)NC(=O)[C@H](CC(N)=O)NC(=O)[C@H](CSSC[C@H](NC(=O)[C@H](CO)NC(=O)[C@@H](N)CC(=O)O)C(=O)N[C@@H](CC(N)=O)C(=O)N[C@@H](Cc1ccc(O)cc1)C(=O)N[C@H](C(=O)N[C@H](C(=O)N[C@@H](CCCNC(=N)N)C(=O)O)[C@@H](C)O)[C@@H](C)CC)NC(=O)[C@H](CO)NC(=O)[C@@H](N)CC(=O)O)C(=O)N[C@H](C(=O)N[C@@H](CCCNC(=N)N)C(=O)O)[C@@H](C)O [Dimer B (5513)2] (HELM PEPTIDE1{D.S.C.N.Y.I.T.R}|PEPTIDE2{D.S.C.N.Y.I.T.R}$PEPTIDE1,PEPTIDE2,3:R3-3:R3$$$V2.0; N-terminus and C-terminus assumed)	25 µg/mL		
CC[C@H](C)[C@H](NC(=O)[C@H](Cc1ccc(O)cc1)NC(=O)[C@H](CC(N)=O)NC(=O)[C@H](CS)NC(=O)[C@H](CS)NC(=O)[C@@H](N)CC(=O)O)C(=O)N[C@H](C(=O)N[C@@H](CCCNC(=N)N)C(=O)O)[C@@H](C)O [Monomer C3a9, reference compound] (H-DCCNYITR-OH; N-terminus and C-terminus assumed)	200 µg/mL		
Intact human C3a: human complement component C3a, a 77-mer polypeptide as set forth in SEQ ID NO:1		inhibit the IgE-mediated degranulation of RBL-2H3 cells	Inhibition of secretion of 3H2 of RBL cells (IC50) ([1]; suboptimal DNP11-BSA antigen stimulus, β-hexosaminidase): 2 µg/mL; Circular Dichroism [3]: CD+
B1		no effect	

— patent US20110306561A1, “COMPLEMENT C3a DERIVED DIMERIC PEPTIDES AND USES THEREOF” (Yeda Research And Devlopment Co. Ltd., priority 2009, published 2011)
